# Test results as given in paper PMC4450660, “Biochemical and Structural Characterization of Enolase from Chloroflexus aurantiacus: Evidence for a Thermophilic Origin” (Frontiers in Bioengineering and Biotechnology, 2015).
# Target: T1, EnoCa (enolase-1 from Chloroflexus aurantiacus) (Chloroflexus aurantiacus, UniProt A9WCM4)
# T1 construct: gene eno; native protein purified from C. aurantiacus cells, untagged; homodimer, subunit ~46 kDa, total ~92-96 kDa
# Assay: X-ray crystal structure of the complex
# Assay type: binding
# Settings: active site, closed conformation, second Mg2+ modelled; crystals at pH 9.0
# T1 sequence (A9WCM4 whole entry): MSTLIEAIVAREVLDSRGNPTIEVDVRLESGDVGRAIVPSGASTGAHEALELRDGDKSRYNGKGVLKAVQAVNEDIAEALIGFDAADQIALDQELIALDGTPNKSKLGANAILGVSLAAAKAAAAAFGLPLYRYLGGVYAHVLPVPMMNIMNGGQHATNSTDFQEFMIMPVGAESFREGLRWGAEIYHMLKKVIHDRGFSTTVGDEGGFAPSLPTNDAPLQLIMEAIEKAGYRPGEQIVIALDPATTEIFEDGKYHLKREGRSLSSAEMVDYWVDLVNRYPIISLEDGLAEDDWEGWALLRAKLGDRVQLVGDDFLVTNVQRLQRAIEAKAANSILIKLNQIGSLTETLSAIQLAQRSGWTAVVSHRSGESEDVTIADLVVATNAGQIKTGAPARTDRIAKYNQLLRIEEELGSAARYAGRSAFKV
smiles,measurement,value
C=C(OP(=O)(O)O)C(=O)O [phosphoenolpyruvate],X-ray crystal structure of the complex,"PEP itself is bound by Glu165, Glu206, Lys338, Arg367, and Ser368"
